According to patent US20230277452A1, “COMPOSITIONS, DEVICES AND METHODS FOR TREATING NASAL, OTIC AND OTHER TISSUE INFECTION AND/OR INFLAMMATION” (priority 2020, published 2023):
Values belong to the molecule of their own block, whether it stands above or below them.

What was measured:
[1] = Forced degradation of neat mometasone furoate monohydrate, percent recovery and degradant peaks by HPLC; type: physicochemical; set-up: key to Degradant peak, RRT 0.61 with respect to MFM / Degradant peak, RRT 0.71 with respect to MFM / Degradant peak, RRT 0.79 with respect to MFM / Degradant peak, RRT 0.87* with respect to MFM / Degradant peak, RRT 1.07 with respect to MFM / Degradant peak, RRT 1.12* with respect to MFM / Degradant peak, RRT 0.96* with respect to MFM: ≥0.05% Peak Area; detected above the 0.05% cutoff; “—” indicates no peak; settings: for Degradant peak, RRT 0.87* with respect to MFM / Degradant peak, RRT 0.96* with respect to MFM / Degradant peak, RRT 1.12* with respect to MFM: related substance; for Actual Amount: neat MFM
Description: Degradation and impurity analysis of the creams was performed using HPLC. The following parameters were used for the analysis of mometasone furoate monohydrate.
Neat mometasone furoate monohydrate (MFM) material was degraded and analyzed for potential chromatographic interference. Briefly, neat MFM was exposed to various conditions to induce degradation including heat (60° C./5 days), light (6 inches away from a white bench light for 5 days), acid (0.1N HCl for 1 hour followed by neutralization with 0.1N NaOH), base (0.1N NaOH for 1 hour followed by neutralization with 0.1N HCl), and oxidation (3% H2O2 for 1 hour). All samples including the degraded samples, control samples (dissolved in HPLC-grade methanol), and the reference solution were analyzed.
Percent recovery is provided in Table 48 below for each condition.
Table 49 below provides the Relative Retention Times (RRTs) and detection ≥0.05% for the samples.

[2] = Recovery of force-degraded MFM spiked into placebo cream and of active cream (0.1% MFM), HPLC; type: physicochemical; settings: for Peak Area MFM / Peak Area RRT = 0.61 / Peak Area RRT = 0.71 / Peak Area RRT = 0.79 / Peak Area RRT = 0.87 / Peak Area RRT = 0.96 / Peak Area RRT = 1.07 / Peak Area RRT = 1.12 / Total MFM-Related Area: Spiked into placebo
Description: MFM neat and degraded materials were spiked into placebo cream (lot #2020-11-01) to investigate potential partitioning effects and peak interferences and to compare spiked and active cream samples by the procedure in Table 50 with the exception that for acid, base and peroxide degradations, the additions of HCl, NaOH and peroxide were calculated accordingly.
Percent recovery of Force-Degraded Materials Spiked into Placebo is provided in Table 51 below while recovery of active cream formulation (0.1% MFM) is provided in Table 52 below.

[3] = in vivo; settings: male, Merino, sheep, in vivo
Description: The control article was 0.9% saline.
Blood was collected (via a jugular vein cannula inserted during surgery) during the 10-day post-dose phase for pharmacokinetics, hematology, clinical chemistry, glucose, and morning cortisol analysis.
Because of the variability in the volume of the sinus in sheep, the total volume varied from 5 to 15 mL. Doses calculated by body weight and body surface area (BSA) are also shown.

[4] = degraded neat material, 0.1N HC1
[5] = degraded neat material, 0.1N NaOH
[6] = degraded neat material, 3% H2O2
[7] = degraded neat material, 60° C. for 5 days
[8] = degraded neat material, White light for 5 days
[9] = Betamethasone plasma concentration, Mean
[10] = Individual betamethasone plasma concentrations

- Degradant peak, RRT 0.61 with respect to MFM [1, 5]: —
- Degradant peak, RRT 0.71 with respect to MFM [1, 5]: —
- Degradant peak, RRT 0.79 with respect to MFM [1, 5]: —
- Degradant peak, RRT 0.87* with respect to MFM [1, 5]: —
- Degradant peak, RRT 0.61 with respect to MFM [1, 6]: —
- Degradant peak, RRT 0.71 with respect to MFM [1, 6]: —
- Degradant peak, RRT 0.79 with respect to MFM [1, 6]: —
- Degradant peak, RRT 1.07 with respect to MFM [1, 6]: —
- Degradant peak, RRT 0.87* with respect to MFM [1, 6]: —
- Degradant peak, RRT 1.12* with respect to MFM [1, 6]: —
- Degradant peak, RRT 0.61 with respect to MFM [1, 7]: —
- Degradant peak, RRT 0.71 with respect to MFM [1, 7]: —
- Degradant peak, RRT 0.79 with respect to MFM [1, 7]: —
- Degradant peak, RRT 1.07 with respect to MFM [1, 7]: —
- Degradant peak, RRT 0.87* with respect to MFM [1, 7]: —
- Degradant peak, RRT 1.12* with respect to MFM [1, 7]: —
- Degradant peak, RRT 0.61 with respect to MFM [1, 8]: —
- Degradant peak, RRT 0.71 with respect to MFM [1, 8]: —
- Degradant peak, RRT 0.79 with respect to MFM [1, 8]: —
- Degradant peak, RRT 1.07 with respect to MFM [1, 8]: —
- Degradant peak, RRT 0.87* with respect to MFM [1, 8]: —
- Degradant peak, RRT 0.96* with respect to MFM [1, 8]: —
- Degradant peak, RRT 1.12* with respect to MFM [1, 8]: —
- Actual Amount ([1]; Acid (0.1N HCl, 1 hour)): 240.289 µg/mL
- Actual Amount ([1]; Base (0.1N NaOH, 1 hour)): 6.091 µg/mL
- Actual Amount ([1]; Control): 254.279 µg/mL
- Actual Amount ([1]; Heat (60° C./5 days)): 249.211 µg/mL
- Actual Amount ([1]; Light (white light, 5 days)): 249.916 µg/mL
- Actual Amount ([1]; Peroxide (3% H2O2, 1 hour)): 262.576 µg/mL
- Degradant peak, RRT 0.61 with respect to MFM ([1]; neat material, 4° C. (Control)): —
- Degradant peak, RRT 0.71 with respect to MFM ([1]; neat material, 4° C. (Control)): —
- Degradant peak, RRT 0.79 with respect to MFM ([1]; neat material, 4° C. (Control)): —
- Degradant peak, RRT 1.07 with respect to MFM ([1]; neat material, 4° C. (Control)): —
- Degradant peak, RRT 0.87* with respect to MFM ([1]; neat material, 4° C. (Control)): —
- Degradant peak, RRT 1.12* with respect to MFM ([1]; neat material, 4° C. (Control)): —
- degradation due to the cream making process ([2]; 0.1% MFM cream, HPLC): no apparent degradation
- Peak Area MFM ([2]; Acid): 116.720
- Peak Area RRT = 0.61 ([2]; Acid): no peaks
- Peak Area RRT = 0.71 ([2]; Acid): no peaks
- Peak Area RRT = 0.79 ([2]; Acid): no peaks
- Peak Area RRT = 0.87 ([2]; Acid): no peaks
- Peak Area RRT = 0.96 ([2]; Acid): 2.964
- Peak Area RRT = 1.07 ([2]; Acid): 0.05
- Peak Area RRT = 1.12 ([2]; Acid): 0.353
- Total MFM-Related Area ([2]; Acid): 120.087
- Peak Area MFM ([2]; Base): 2.991
- Peak Area RRT = 0.61 ([2]; Base): 0.097
- Peak Area RRT = 0.71 ([2]; Base): 0.143
- Peak Area RRT = 0.79 ([2]; Base): 0.433
- Peak Area RRT = 0.87 ([2]; Base): 5.187
- Peak Area RRT = 0.96 ([2]; Base): 14.967
- Peak Area RRT = 1.07 ([2]; Base): 55.374
- Peak Area RRT = 1.12 ([2]; Base): 10.016
- Total MFM-Related Area ([2]; Base): 89.208
- Peak Area MFM ([2]; Control): 125.120
- Peak Area RRT = 0.61 ([2]; Control): no peaks
- Peak Area RRT = 0.71 ([2]; Control): no peaks
- Peak Area RRT = 0.79 ([2]; Control): no peaks
- Peak Area RRT = 0.87 ([2]; Control): no peaks
- Peak Area RRT = 0.96 ([2]; Control): 0.171
- Peak Area RRT = 1.07 ([2]; Control): no peaks
- Peak Area RRT = 1.12 ([2]; Control): no peaks
- Total MFM-Related Area ([2]; Control): 125.291
- Peak Area MFM ([2]; Heat): 122.536
- Peak Area RRT = 0.61 ([2]; Heat): no peaks
- Peak Area RRT = 0.71 ([2]; Heat): no peaks
- Peak Area RRT = 0.79 ([2]; Heat): no peaks
- Peak Area RRT = 0.87 ([2]; Heat): no peaks
- Peak Area RRT = 0.96 ([2]; Heat): 0.161
- Peak Area RRT = 1.07 ([2]; Heat): no peaks
- Peak Area RRT = 1.12 ([2]; Heat): no peaks
- Total MFM-Related Area ([2]; Heat): 122.697
- Peak Area MFM ([2]; Light): 123.671
- Peak Area RRT = 0.61 ([2]; Light): no peaks
- Peak Area RRT = 0.71 ([2]; Light): no peaks
- Peak Area RRT = 0.79 ([2]; Light): no peaks
- Peak Area RRT = 0.87 ([2]; Light): no peaks
- Peak Area RRT = 0.96 ([2]; Light): 0.152
- Peak Area RRT = 1.07 ([2]; Light): no peaks
- Peak Area RRT = 1.12 ([2]; Light): no peaks
- Total MFM-Related Area ([2]; Light): 123.823
- Peak Area MFM ([2]; Peroxide): 128.187
- Peak Area RRT = 0.61 ([2]; Peroxide): no peaks
- Peak Area RRT = 0.71 ([2]; Peroxide): no peaks
- Peak Area RRT = 0.79 ([2]; Peroxide): no peaks
- Peak Area RRT = 0.87 ([2]; Peroxide): no peaks
- Peak Area RRT = 0.96 ([2]; Peroxide): 0.176
- Peak Area RRT = 1.07 ([2]; Peroxide): no peaks
- Peak Area RRT = 1.12 ([2]; Peroxide): no peaks
- Total MFM-Related Area ([2]; Peroxide): 128.363
SMILES: C[C@@H]1C[C@H]2[C@@H]3CCC4=CC(=O)C=C[C@]4(C)[C@@]3(Cl)[C@@H](O)C[C@]2(C)[C@@]1(OC(=O)c1ccco1)C(=O)CCl [MFM, mometasone furoate monohydrate]
- Degradant peak, RRT 0.61 with respect to MFM [1, 4]: detected (≥0.05% Peak Area; detected above the 0.05% cutoff)
- Degradant peak, RRT 0.71 with respect to MFM [1, 4]: detected (≥0.05% Peak Area; detected above the 0.05% cutoff)
- Degradant peak, RRT 0.79 with respect to MFM [1, 4]: detected (≥0.05% Peak Area; detected above the 0.05% cutoff)
- Degradant peak, RRT 1.07 with respect to MFM [1, 4]: detected (≥0.05% Peak Area; detected above the 0.05% cutoff)
- Degradant peak, RRT 0.87* with respect to MFM [1, 4]: detected (≥0.05% Peak Area; detected above the 0.05% cutoff)
- Degradant peak, RRT 0.96* with respect to MFM [1, 4]: detected (≥0.05% Peak Area; detected above the 0.05% cutoff)
- Degradant peak, RRT 1.12* with respect to MFM [1, 4]: detected (≥0.05% Peak Area; detected above the 0.05% cutoff)
- Degradant peak, RRT 1.07 with respect to MFM [1, 5]: detected (≥0.05% Peak Area; detected above the 0.05% cutoff)
- Degradant peak, RRT 0.96* with respect to MFM [1, 5]: detected (≥0.05% Peak Area; detected above the 0.05% cutoff)
- Degradant peak, RRT 1.12* with respect to MFM [1, 5]: detected (≥0.05% Peak Area; detected above the 0.05% cutoff)
- Degradant peak, RRT 0.96* with respect to MFM [1, 6]: detected (≥0.05% Peak Area; detected above the 0.05% cutoff)
- Degradant peak, RRT 0.96* with respect to MFM [1, 7]: detected (≥0.05% Peak Area; detected above the 0.05% cutoff)
- Degradant peak, RRT 0.96* with respect to MFM ([1]; neat material, 4° C. (Control)): detected (≥0.05% Peak Area; detected above the 0.05% cutoff)

- AUC(0-inf) [3]: 35.2 ± 8.3 ng·h/mL
- AUC(0-t) [3]: 33.5 ± 8.9 ng·h/mL
- Cmax [3]: 0.98 ± 0.397 ng/mL
- Tmax [3]: 24 h
- plasma levels detected through [3]: 3 days post-dose
- time of maximum plasma levels [3]: about 24 hr post-dose
- concentration at 0 h [3, 9]: 0 ng/mL
- concentration at 0.5 h [3, 9]: 0.152 ng/mL
- concentration at 1 h [3, 9]: 0.307 ng/mL
- concentration at 2 h [3, 9]: 0.518 ng/mL
- concentration at 6 h [3, 9]: 0.74 ng/mL
- concentration at 24 h [3, 9]: 0.964 ng/mL
- concentration at 48 h [3, 9]: 0.223 ng/mL
- concentration at 72 h [3, 9]: 0.071 ng/mL
- concentration at 0 h [3, 10]: 0 ng/mL
- concentration at 48 h [3, 10]: 0.229 ng/mL
SMILES: C[C@H]1C[C@H]2[C@@H]3CCC4=CC(=O)C=C[C@]4(C)[C@@]3(F)[C@@H](O)C[C@]2(C)[C@@]1(O)C(=O)CO [Betamethasone, betamethasone]
